# Reference: BindingDB's records for patent US20250161319 (Asclepieion Pharmaceutical, 2025)
# Target: Mitogen-activated protein kinase kinase kinase kinase 1 (Homo sapiens, UniProt Q92918)
# Experiment: Tests of Compounds for Inhibiting HPK1 Kinase Activity In Vitro
# Method: The compound dilution was transferred into 384-well plate by using a pipette, afterwards, the 384-well plate was sealed and centrifuged at 1000 g for 1 min. 2-fold concentration of HPK1 solution was prepared in the kinase buffer, and then 2.5 μL of the prepared 2-fold concentration of HPK1 solution was added into the 384 wells, centrifuged at 1000 g for 30 s, and incubated for 10 min at room temperature. A mixture of 2-fold concentration of MBP and ATP was prepare in the kinase buffer, and […] of prepared mixture of 2-fold concentration of MBP and ATP was added into the above reaction system for the reaction, centrifuged at 1000 g for 30 s, and then incubated at room temperature for 1 h, 5 μL of ADP-Glo reagent was added into the reaction system, and incubated at room temperature for 40 min. 10 μL of kinase detection reagent was added and incubated at room temperature for 40 min.
# Sequence of Mitogen-activated protein kinase kinase kinase kinase 1 (Q92918 whole entry): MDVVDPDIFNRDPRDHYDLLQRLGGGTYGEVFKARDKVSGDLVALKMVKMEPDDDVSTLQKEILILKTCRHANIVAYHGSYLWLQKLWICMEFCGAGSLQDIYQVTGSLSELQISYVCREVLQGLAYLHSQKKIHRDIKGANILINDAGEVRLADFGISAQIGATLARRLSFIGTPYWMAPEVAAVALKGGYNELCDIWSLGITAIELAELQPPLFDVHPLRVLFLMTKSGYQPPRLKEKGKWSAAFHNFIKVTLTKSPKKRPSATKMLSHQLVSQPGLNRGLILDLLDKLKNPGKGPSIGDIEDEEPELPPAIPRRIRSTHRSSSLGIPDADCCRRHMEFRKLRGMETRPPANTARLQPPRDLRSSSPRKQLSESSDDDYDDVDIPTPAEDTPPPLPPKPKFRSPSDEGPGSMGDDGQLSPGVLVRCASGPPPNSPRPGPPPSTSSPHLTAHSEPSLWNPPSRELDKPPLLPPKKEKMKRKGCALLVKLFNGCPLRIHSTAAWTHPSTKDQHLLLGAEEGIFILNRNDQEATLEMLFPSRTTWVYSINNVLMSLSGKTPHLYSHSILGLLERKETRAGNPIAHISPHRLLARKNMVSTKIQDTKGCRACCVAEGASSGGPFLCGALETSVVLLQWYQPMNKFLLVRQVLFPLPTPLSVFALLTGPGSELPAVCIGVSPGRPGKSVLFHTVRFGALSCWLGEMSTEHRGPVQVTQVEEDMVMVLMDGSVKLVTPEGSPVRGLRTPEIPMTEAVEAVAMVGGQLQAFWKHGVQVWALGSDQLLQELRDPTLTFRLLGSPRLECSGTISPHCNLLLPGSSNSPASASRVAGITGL
row,Compound,IC50
1,"C=Cn1cccc1-c1cc2cc(NC(=O)C3CC3F)ncc2c(N)c1F (configuration not stated) [US20250161319, Example 4]",< 50 nM
2,"Cn1cccc1-c1cc2cc(NC(=O)c3ccc(N4CCNCC4)cc3)ncc2c(N)c1F [US20250161319, Example 6]",< 100 nM
3,"CN1CCN(c2ccc(C(=O)Nc3cc4cc(-c5cccn5C)c(F)c(N)c4cn3)cc2)CC1 [US20250161319, Example 7]",< 300 nM
4,"CCn1cccc1-c1cc2cc(NC(=O)C3CCC(F)CC3)ncc2c(N)c1F (configuration not stated) [US20250161319, Example 9]",< 300 nM
5,"Cn1cccc1-c1cc2cc(NC(=O)C3CC3F)ncc2c(F)c1C#N (configuration not stated) [US20250161319, Example 10]",> 300 nM

# The remaining lines, values ahead:
row,IC50,Compound
1,< 50 nM,"CCn1cccc1-c1cc2cc(NC(=O)C3CC3F)ncc2c(N)c1F (configuration not stated) [US20250161319, Example 2]"
2,< 50 nM,"CC(C)n1cccc1-c1cc2cc(NC(=O)C3CC3F)ncc2c(N)c1F (configuration not stated) [US20250161319, Example 3]"
